Measurements as given in patent US20060140970A1, “Proteic binding partners of TCTP and methods of modulating tumor reversion or cell apoptosis” (priority 2003, published 2006).

Experiments:
[1] = system: OP18 phosphorylation in 293 HEK cells; experiment: OP18 phosphorylation state, native PAGE and immunoblot; type: cell-based; details: nocodazole 250 ng/ml, control cells
Method: Transfection, preparation of native OP18 enriched extracts, and analysis of OP18 phosphorylation levels. 293 T cells were transfected by the standard calcium phosphate method, with the following constructs: pEYFP (Clontech, BD) (negative control), pEYFP-TCTP wide type (WT) or the mutant pEYFP-TCTP S46A/S64A. Twenty four hours after the transfection, the cells were treated with nocodazole (250 ng/ml) for 0 hour, 1 hour, 2 hours, 4 hours and 8 hours, and rinsed twice in PBS. The pellets were lyzed with 3-5 volumes of lysis buffer (50 mM Tris-HCl, pH 7.5, 250 mM NaCl, 10 mM EDTA, 1% Nonidet P-40, protease inhibitors cocktail and phosphatases inhibitors (10 mM sodium orthovanadate, 10 mM natrium fluoride (NAF)) on ice for 20 minutes, and centrifuged for 10 minutes at 14,000 rpm at 4° C. The supernatants were carefully removed and stored on ice while measuring their concentration of proteins by spectrophotometry at 595 nm (Bradford method). To enrich the concentration of OP18 in the extracts, 1.2 mg of each total extract was boiled at 75° C. for 7 minutes, put on ice for 1 minute, and centrifuged for 10 minutes at 14,000 rpm at 4° C. Then, the supernatants were precipitated in 5-6 volumes of 1% sucrose in methanol O/N at −20° C. […]

[2] = system: 293T HEK cells; experiment: Polymerized tubulin fraction in cells, western blot anti-α-tubulin; type: cell-based
Method: […] The treated cells were rinsed twice in PBS, lyzed on plates with 250 μl of a microtubule-stabilizing buffer (20 mM Tris-HCl, pH 6.8, 140 mM NaCl, 0.5 % Nonidet P-40, 1 mM MgCl2, 2 mM EGTA, 4 μg/ml Taxol, protease inhibitors cocktail), scraped and transferred into a 1.5 ml microcentrifuge tube. Each plate was rinsed with a second 250 μl of lysis buffer, and the cell lysates were pooled. The lysis occurred for 20 minutes at room temperature. The microcentrifuge tubes containing 500 μl of lyzed cells contents were briefly mixed and then centrifuged at 14,000 rpm for 10 minutes at 4° C. Supernatants containing soluble tubulin were carefully separated from pellets containing polymerized tubulin and placed in a separate tube. The pellets were quickly rinsed with additional 20 μl of lysis buffer and resuspended in 125 μl of water. […] The concentration of proteins in the supernatants was measured by spectrophotometry at 595 nm (Bradford method). Using these soluble tubulin concentration values, 60 μg of the polymerized tubulin fractions were run on a 10% acrylamide gel (SDS-PAGE system) and transferred on a nitrocellulose membrane (Biorad) that was incubated with an anti-a-tubulin (Sigma) diluted 1/2000. Since TCTP overexpression lead to a decrease of OP18 phosphorylation, and consequently, contribute to the maintenance of OP18 in its active state, it was hypothesized that TCTP overexpression would induce the microtubule depolymerization. To confirm this hypothesis, an assay that enables the isolation and monitoring of the tubulin in a microtubule polymerized state only, but not in a free soluble state, was performed. Briefly, after lysis of cells in a hypotonic buffer containing low dose of Taxol (a microtubule stabilizing agent) and a centrifugation, the polymerized fraction of tubulin was preserved and purified. Then, the amount of polymerized tubulin in cells was monitored by western blot using an anti-α-tubulin antibody.

[3] = target: T1, eEF1A (eEF1Bαγ-mediated GDP exchange) (Oryctolagus cuniculus, UniProt P68105); experiment: eEF1Bαγ-mediated GDP exchange on eEF1A; type: biochemical, rabbit; details: without TCTP; first-order kinetics
T1 construct: Rabbit liver eEF1A was purified as described in Shalak et al; from tissue; host or cells: rabbit liver (eEF1A only)
T1 sequence (P68105 2-462 limits assumed): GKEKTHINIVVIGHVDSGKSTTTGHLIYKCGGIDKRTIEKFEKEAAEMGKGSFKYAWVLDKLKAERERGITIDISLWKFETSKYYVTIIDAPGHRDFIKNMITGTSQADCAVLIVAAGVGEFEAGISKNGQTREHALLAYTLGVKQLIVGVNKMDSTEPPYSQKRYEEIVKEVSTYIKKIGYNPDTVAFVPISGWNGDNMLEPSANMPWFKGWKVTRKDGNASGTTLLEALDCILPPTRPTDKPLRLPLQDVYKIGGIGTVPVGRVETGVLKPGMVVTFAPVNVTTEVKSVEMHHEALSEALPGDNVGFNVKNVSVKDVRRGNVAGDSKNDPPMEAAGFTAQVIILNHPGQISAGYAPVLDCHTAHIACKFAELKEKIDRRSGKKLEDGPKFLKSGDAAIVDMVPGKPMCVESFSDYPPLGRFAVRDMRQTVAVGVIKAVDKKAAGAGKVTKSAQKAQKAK
Method: Guanine nucleotide exchange assay. Rabbit liver eEF1A was purified as described in Shalak et al., Ukr Biokhim Zh, 69: 104-9 (1997), incorporated herein by reference. The guanine nucleotide exchange on eEF1A was monitored as described in Negrutskii et al., J Biol Chem, 274: 4545-50 (1999) and Bec et al., J Biol Chem, 269: 2086-92 (1994), both of which are incorporated herein by reference. The eEF1A-[^3H]GDP complex was prepared following incubation of 4 μM eEF1A with 4 μM [^3H]GDP (Amersham Biosciences; 1500 Ci/mol) in 80 μl of 45 mM Tris-HCl (pH 7.5) containing 0.5 mM DTT, 10 mM magnesium acetate, 100 mM NH4Cl, 1 mg/ml bovine serum albumin and 25% glycerol for 5 minutes at 37° C. The reaction mixture was placed on ice and diluted by addition of 640 μl of ice-cold exchange buffer [20 mM Tris-HCl (pH 7.5), 10 mM magnesium acetate, 50 mM NH4Cl, 10% glycerol]. The exchange reaction was conducted at 0° C. after addition of 160 μl of exchange buffer containing nucleotide and specified exchange factors. Aliquots of 100 μl were taken at times indicated and immediately filtered through nitrocellulose filters (Millipore; pore size 0.45 μm). Filters were washed 3 times with 1 ml of ice-cold washing buffer [20 mM Tris-HCl (pH 7.5), 10 mM magnesium acetate, 100 mM NH4Cl, 0.1 mg/ml bovine serum albumin], dried and counted in a liquid scintillator. […]

Row | Compound | time from which OP18 with three (3-P) and four (4-P) phosphorylated sites is detectable [1] [h] | amount of polymerized tubulin ([2]; 16 hours of treatment, compared to untreated cells) | tubulin polymerization during nocodazole treatment ([2]; nocodazole 250 ng/ml, increasing time, transfected 293T HEK cells) | initial rate of GDP exchange [3]
1 | COC(=O)Nc1nc2ccc(C(=O)c3cccs3)cc2[nH]1 [nocodazole] | ≥ 2 | no polymerized tubulin was present | decreased proportionally to the time length of treatment | –
2 | eEF1Bαγ: complex of guanine nucleotide exchange factor eEF1Bα with eEF1Bγ | – | – | – | 0.84 min^−1 per pmol of eEF1Bα≢5
